Data: PubChem BioAssay AID328 (DTP/NCI, 2004)
“And” between values parts separate entries of the source, which are not always exact repeats. Equal entries are not always repeated. Toxic doses and inconclusive results are not listed.

Test system: BDF1 mice, P388 leukemia ip, median survival T/C
Experiment: NCI In Vivo Anticancer Drug Screen. Data for tumor model P388 Leukemia (intraperitoneal) in B6D2F1 (BDF1) mice
Details: endpoint: median survival time, higher = longer survival
Outline: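 Reported as T/C, where T is the survival measurement in dosed animals and C the same measurement in vehicle controls.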

COC(=O)C1c2cc3c(cc2C(OC2OC(C)C(OC)C(C)(OC)C2OC)CC1(C)O)C(=O)c1c(O)cc2c(c1C3=O)OC1OC2(C)C(O)C([N+](C)(C)[O-])C1O (centres undefined)
T/C (dose: 3.13 mg/kg/injection, schedule: Q01DX010 (ip), vehicle: saline): 150 % of control | T/C (dose: 6.25 mg/kg/injection, schedule: Q01DX010 (ip), vehicle: saline): 165 % of control | T/C (dose: 12.5 mg/kg/injection, schedule: Q01DX010 (ip), vehicle: saline): 95 % of control

Clc1cc(N2CC2)nc(N2CC2)n1
T/C (dose: 0.11 mg/kg/injection, schedule: Q01DX009 (ip), vehicle: saline): 90 % of control | T/C (dose: 0.17 mg/kg/injection, schedule: Q01DX009 (ip), vehicle: saline): 95 % of control | T/C (dose: 0.27 mg/kg/injection, schedule: Q01DX009 (ip), vehicle: saline): 275 % of control | T/C (dose: 0.4 mg/kg/injection, schedule: Q01DX009 (ip), vehicle: saline): 295 % of control | T/C (dose: 0.62 mg/kg/injection, schedule: Q01DX009 (ip), vehicle: saline): 157 % of control | T/C (dose: 1.25 mg/kg/injection, schedule: Q01DX009 (ip), vehicle: saline): 230 % of control | T/C (dose: 1.56 mg/kg/injection, schedule: Q01DX001 (ip), vehicle: saline): 109 % of control | T/C (dose: 3.12 mg/kg/injection, schedule: Q04DX003 (ip), vehicle: saline): 104 % of control | T/C (dose: 6.5 mg/kg/injection, schedule: Q01DX001 (ip), vehicle: saline): 163 % of control | T/C (dose: 6.5 mg/kg/injection, schedule: Q04DX003 (ip), vehicle: saline): 168 % of control

COC12C(COC(=O)NCCO)C3=C(C(=O)C(C)=C(N)C3=O)N1CC1NC12 (centres undefined)
T/C (dose: 6.25 mg/kg/injection, schedule: Q01DX009 (ip), vehicle: saline): 209 % of control | T/C (dose: 12.5 mg/kg/injection, schedule: Q01DX009 (ip), vehicle: saline): 228 % of control and 230 % of control | T/C (dose: 25.0 mg/kg/injection, schedule: Q01DX009 (ip), vehicle: saline): 231 % of control and 254 % of control

COc1cc(/C=C2/CCCCC2=O)ccc1O
T/C (dose: 100.0 mg/kg/injection, schedule: Q01DX001 (ip), vehicle: other): 104 % of control | T/C (dose: 200.0 mg/kg/injection, schedule: Q01DX001 (ip), vehicle: other): 95 % of control | T/C (dose: 400.0 mg/kg/injection, schedule: Q01DX001 (ip), vehicle: other): 104 % of control

CO[C@H](C(=O)[C@@H](O)[C@@H](C)O)[C@@H]1Cc2cc3cc(OC4CC(OC5CC(O)C(O)C(C)O5)C(O)C(C)O4)c(C)c(O)c3c(O)c2C(=O)[C@H]1OC1CC(OC2CC(OC3CC(C)(O)C(O)C(C)O3)C(O)C(C)O2)C(O)C(C)O1 (some centres undefined)
T/C (dose: 0.05 mg/kg/injection, schedule: Q01DX009 (ip), vehicle: water): 120 % of control and 110 % of control | T/C (dose: 0.06 mg/kg/injection, schedule: Q01DX001 (ip), vehicle: water): 100 % of control | T/C (dose: 0.1 mg/kg/injection, schedule: Q01DX015 (ip), vehicle: water): 100 % of control | T/C (dose: 0.12 mg/kg/injection, schedule: Q01DX009 (ip), vehicle: clinical formulation): 114 % of control | T/C (dose: 0.12 mg/kg/injection, schedule: Q#A X005 (ip), vehicle: saline): 118 % of control | T/C (dose: 0.13 mg/kg/injection, schedule: Q01DX001 (ip), vehicle: water): 100 % of control | T/C (dose: 0.13 mg/kg/injection, schedule: Q01DX009 (ip), vehicle: saline): 122 % of control | T/C (dose: 0.19 mg/kg/injection, schedule: Q01DX010 (ip), vehicle: saline): 110 % of control | T/C (dose: 0.2 mg/kg/injection, schedule: Q01DX009 (ip), vehicle: water): 150 % of control | T/C (dose: 0.25 mg/kg/injection, schedule: Q01DX001 (im), vehicle: water): 100 % of control | T/C (dose: 0.25 mg/kg/injection, schedule: Q01DX001 (ip), vehicle: water): 104 % of control | T/C (dose: 0.25 mg/kg/injection, schedule: Q01DX005 (ip), vehicle: saline): 100 % of control | T/C (dose: 0.25 mg/kg/injection, schedule: Q01DX009 (ip), vehicle: clinical formulation): 121 % of control | T/C (dose: 0.25 mg/kg/injection, schedule: Q01DX010 (oral), vehicle: saline): 100 % of control | T/C (dose: 0.25 mg/kg/injection, schedule: Q01DX015 (ip), vehicle: water): 115 % of control | T/C (dose: 0.35 mg/kg/injection, schedule: Q01DX009 (ip), vehicle: water): 150 % of control | T/C (dose: 0.5 mg/kg/injection, schedule: Q01DX001 (im), vehicle: water): 95 % of control | T/C (dose: 0.5 mg/kg/injection, schedule: Q01DX001 (ip), vehicle: saline): 100 % of control | T/C (dose: 0.5 mg/kg/injection, schedule: Q01DX001 (ip), vehicle: water): 110 % of control | T/C (dose: 0.5 mg/kg/injection, schedule: Q01DX005 (ip), vehicle: saline): 100 % of control | T/C (dose: 0.5 mg/kg/injection, schedule: Q01DX009 (ip), vehicle: water): 150 % of control | T/C (dose: 0.5 mg/kg/injection, schedule: Q01DX010 (oral), vehicle: saline): 100 % of control | T/C (dose: 0.5 mg/kg/injection, schedule: Q02DX005 (ip), vehicle: water): 90 % of control | T/C (dose: 0.5 mg/kg/injection, schedule: Q04DX003 (ip), vehicle: saline): 100 % of control | T/C (dose: 0.54 mg/kg/injection, schedule: Q01DX005 (ip), vehicle: water): 175 % of control | T/C (dose: 0.65 mg/kg/injection, schedule: Q01DX009 (ip), vehicle: water): 95 % of control | T/C (dose: 0.65 mg/kg/injection, schedule: Q04DX003 (ip), vehicle: water): 115 % of control | T/C (dose: 0.75 mg/kg/injection, schedule: Q01DX010 (ip), vehicle: water): 118 % of control | T/C (dose: 1.0 mg/kg/injection, schedule: Q01DX001 (im), vehicle: water): 108 % of control | T/C (dose: 1.0 mg/kg/injection, schedule: Q01DX001 (ip), vehicle: saline): 100 % of control and 109 % of control | T/C (dose: 1.0 mg/kg/injection, schedule: Q01DX009 (ip), vehicle: clinical formulation): 191 % of control | T/C (dose: 1.0 mg/kg/injection, schedule: Q01DX009 (ip), vehicle: saline): 94 % of control and 95 % of control | T/C (dose: 1.0 mg/kg/injection, schedule: Q01DX010 (oral), vehicle: saline): 100 % of control | T/C (dose: 1.0 mg/kg/injection, schedule: Q04DX003 (ip), vehicle: saline): 91 % of control and 118 % of control | T/C (dose: 1.08 mg/kg/injection, schedule: Q04DX003 (ip), vehicle: water): 113 % of control | T/C (dose: 1.5 mg/kg/injection, schedule: Q01DX010 (ip), vehicle: saline): 180 % of control | T/C (dose: 1.5 mg/kg/injection, schedule: Q01DX010 (oral), vehicle: water): 91 % of control | T/C (dose: 1.8 mg/kg/injection, schedule: Q04DX003 (ip), vehicle: water): 103 % of control | T/C (dose: 2.0 mg/kg/injection, schedule: Q01DX001 (ip), vehicle: saline): 118 % of control | T/C (dose: 2.0 mg/kg/injection, schedule: Q01DX009 (ip), vehicle: saline): 31 % of control | T/C (dose: 2.0 mg/kg/injection, schedule: Q01DX010 (oral), vehicle: saline): 100 % of control | T/C (dose: 2.0 mg/kg/injection, schedule: Q01DX010 (oral), vehicle: water): 91 % of control | T/C (dose: 2.5 mg/kg/injection, schedule: Q01DX010 (oral), vehicle: water): 91 % of control | T/C (dose: 50.0 mg/kg/injection, schedule: Q01DX010 (ip), vehicle: water): 100 % of control | T/C (dose: 7.5 micrograms/kg/injection, schedule: Q03HX008 (ip), vehicle: saline): 100 % of control | T/C (dose: 7.5 micrograms/kg/injection, schedule: Q04DX024 (ip), vehicle: saline): 95 % of control | T/C (dose: 63.0 micrograms/kg/injection, schedule: Q01DX010 (ip), vehicle: saline): 109 % of control | T/C (dose: 94.0 micrograms/kg/injection, schedule: Q01DX010 (ip), vehicle: saline): 100 % of control | T/C (dose: 125.0 micrograms/kg/injection, schedule: Q01DX010 (ip), vehicle: saline): 118 % of control | T/C (dose: 188.0 micrograms/kg/injection, schedule: Q01DX010 (ip), vehicle: saline): 113 % of control | T/C (dose: 375.0 micrograms/kg/injection, schedule: Q01DX010 (ip), vehicle: saline): 113 % of control

COc1cc2c(c(OC)c1OC)-c1ccc(OC)c(=O)cc1[C@@H](NC(C)=O)CC2
T/C (dose: 0.04 mg/kg/injection, schedule: Q01DX010 (ip), vehicle: saline): 122 % of control | T/C (dose: 0.13 mg/kg/injection, schedule: Q01DX009 (ip), vehicle: water): 171 % of control | T/C (dose: 0.16 mg/kg/injection, schedule: Q01DX010 (ip), vehicle: saline): 181 % of control | T/C (dose: 0.25 mg/kg/injection, schedule: Q01DX009 (ip), vehicle: water): 173 % of control | T/C (dose: 0.32 mg/kg/injection, schedule: Q01DX010 (ip), vehicle: saline): 154 % of control and 181 % of control | T/C (dose: 0.64 mg/kg/injection, schedule: Q01DX010 (ip), vehicle: saline): 163 % of control | T/C (dose: 250.0 micrograms/kg/injection, schedule: Q01DX009 (ip), vehicle: saline): 153 % of control | T/C (dose: 500.0 micrograms/kg/injection, schedule: Q01DX009 (ip), vehicle: saline): 235 % of control | T/C (dose: 1000.0 micrograms/kg/injection, schedule: Q01DX009 (ip), vehicle: saline): 222 % of control
